For 51 compounds, EC50 results are on record in patent publication US9150568B2, “Compositions and methods for modulating FXR” (NOVARTIS AG, priority 2010, dated 2015).

One experiment has as its target T1, human Farnesoid X Receptor (FXR) ligand binding domain (GST-FXR LBD) (Homo sapiens, UniProt Q96RI1).
T1 construct: purchased Invitrogen
T1 sequence (Q96RI1 193-472 isoform Q96RI1-2): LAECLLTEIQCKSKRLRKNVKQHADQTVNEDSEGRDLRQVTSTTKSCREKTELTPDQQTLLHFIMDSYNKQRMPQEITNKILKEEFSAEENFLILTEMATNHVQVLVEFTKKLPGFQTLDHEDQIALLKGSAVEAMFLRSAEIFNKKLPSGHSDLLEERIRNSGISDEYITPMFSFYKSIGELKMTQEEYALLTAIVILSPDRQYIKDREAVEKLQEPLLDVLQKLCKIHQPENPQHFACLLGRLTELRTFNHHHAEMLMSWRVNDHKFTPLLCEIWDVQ
The experiment is described as follows: Human GST-FXR LBD co-activator interaction assay (HTRF). It counts as biochemical.
Details: not given
The source says: Human GST-FXR LBD Co-activator interaction Assay. The FXR HTRF assay is a biochemical assay measuring the interaction between FXR and a coactivator protein (SRC1). The ligand-induced interaction with a coactivator protein is a critical step in transcriptional activation by FXR. Thus, this is an assay designed to measure FXR agonist activity of compounds.
The ligand-dependent interaction between GST-FXR LBD and a peptide derived from Steroid Receptor Coactivator-1 (SRC-1) was monitored by Fluorescence Resonance Energy Transfer (FRET). […] Test compounds (in DMSO solution) and detection reagents (anti-GST-Cryptate labeled antibody and Streptavidin-XL665 conjugate; CisBio) were added in assay buffer containing 50 mM KF.
A negative control (without Streptavidin-XL665) was run with each assay and represented the background fluorescence. A reference FXR agonist, GW4064, was included in each experiment as positive control. The efficacy of each test compound was compared to that of GW4064. At each concentration, the relative activity of the test compound was expressed as Response %=(Rsample−RDMSO)/(Rpositive−RDMSO), where Rsample is the HTRF response (expressed in Delta F %) for the test compound, Rpositive is the maximal response for GW4064 at saturating concentrations, and RDMSO is the response for DMSO control. The EC50 values were calculated using GraphPad Prism (GraphPad Software) using non-linear regression curve fit (log(agonist) vs. response—variable slope (four parameters)).
For the compound `Cc1cc(C(=O)O)cnc1N1C2CC[C@H]1C[C@H](OCc1c(-c3ccccc3OC(F)(F)F)noc1C1CC1)C2` [Example 19-4B], the midpoint of the response, the EC50, lay at 0.005 µM.

Still in this experiment, the particulars now being: GST-FXR LBD / biotin-SRC-1 peptide FRET; response relative to GW4064; read-out: FXR Co-activator interaction assay (EC50).
As to `O=C(O)Cc1ccc(N2C3CC[C@H]2C[C@H](OCc2c(-c4ccccc4OC(F)(F)F)noc2C2CC2)C3)nc1` [Example 19-1B], the EC50 came to 0.04 µM.
Same read-out and setting: the value for `COC(=O)c1cnc(N2C3CC[C@H]2C[C@H](OCc2c(-c4ccccc4OC(F)(F)F)noc2C2CC2)C3)nc1C(F)(F)F` [Example 19-2A] was 0.08 µM; that for `O=C(O)c1cnc(N2C3CC[C@H]2C[C@H](OCc2c(-c4ccccc4OC(F)(F)F)noc2C2CC2)C3)nc1C(F)(F)F` [Example 19-2B] was 0.02 µM; that for `COC(=O)c1cnc(N2C3CC[C@H]2C[C@H](OCc2c(-c4ccccc4OC(F)(F)F)noc2C2CC2)C3)cc1C(F)(F)F` [Example 19-3A] was 0.09 µM.
With `O=C(O)c1cnc(N2C3CC[C@H]2C[C@H](OCc2c(-c4ccccc4OC(F)(F)F)noc2C2CC2)C3)cc1C(F)(F)F` [Example 19-3B], the EC50 came out at 0.01 µM.
In the case of `COC(=O)c1cnc(N2C3CC[C@H]2C[C@H](OCc2c(-c4ccccc4OC(F)(F)F)noc2C2CC2)C3)c(C)c1` [Example 19-4A], the EC50 came to 0.07 µM.
For `COC(=O)c1cncc(N2C3CC[C@H]2C[C@H](OCc2c(-c4ccccc4OC(F)(F)F)noc2C2CC2)C3)n1` [Example 19-5A], the EC50 came out at 0.2 µM.
The same measure, in the same setting: under `O=C(O)c1cncc(N2C3CC[C@H]2C[C@H](OCc2c(-c4ccccc4OC(F)(F)F)noc2C2CC2)C3)n1` [Example 19-5B] stands 0.009 µM.
Same read-out and setting: the value for `COC(=O)c1ccnc(N2C3CC[C@H]2C[C@H](OCc2c(-c4ccccc4OC(F)(F)F)noc2C2CC2)C3)n1` [Example 19-6A] was 0.05 µM.
On the same count and under the same terms, the value for `O=C(O)c1ccnc(N2C3CC[C@H]2C[C@H](OCc2c(-c4ccccc4OC(F)(F)F)noc2C2CC2)C3)n1` [Example 19-6B] was 0.007 µM.
Take `COC(=O)c1cccc(N2C3CC[C@H]2C[C@H](OCc2c(-c4ccccc4OC(F)(F)F)noc2C2CC2)C3)n1` [Example 19-7A]: the EC50 came to 0.01 µM.
For `O=C(O)c1cccc(N2C3CC[C@H]2C[C@H](OCc2c(-c4ccccc4OC(F)(F)F)noc2C2CC2)C3)n1` [Example 19-7B], the EC50 is 0.003 µM.
The same measure, in the same setting: the value for `COC(=O)c1ccnc(N2C3CC[C@H]2CC(OCc2c(-c4ccccc4C(F)(F)F)noc2C2CC2)C3)c1` (stereo partly drawn) [Example 20A] was 0.17 µM; that for `O=C(O)c1ccnc(N2C3CC[C@H]2CC(OCc2c(-c4ccccc4C(F)(F)F)noc2C2CC2)C3)c1` (stereo partly drawn) [Example 20B, 2-(3-((5-cyclopropyl-3-(2-(trifluoromethyl)phenyl)isoxazol-4-yl)methox)-8-azabicyclo[3.2.1]octan-8-yl)isonicotinic acid] was 0.33 µM; that for `COC(=O)c1cc(C)nc(N2C3CC[C@H]2CC(OCc2c(-c4ccccc4C(F)(F)F)noc2C2CC2)C3)c1` (stereo partly drawn) [Example 21-1A] was 0.3 µM.
The same measure, in the same setting: the value for `Cc1cc(C(=O)O)cc(N2C3CC[C@H]2CC(OCc2c(-c4ccccc4C(F)(F)F)noc2C2CC2)C3)n1` (stereo partly drawn) [Example 21-1B] was 0.26 µM; that for `COC(=O)c1cnc(N2C3CC[C@H]2CC(OCc2c(-c4ccccc4C(F)(F)F)noc2C2CC2)C3)nc1` (stereo partly drawn) [Example 21-2A] was 0.12 µM.
On the same count and under the same terms, the value for `O=C(O)c1cnc(N2C3CC[C@H]2CC(OCc2c(-c4ccccc4C(F)(F)F)noc2C2CC2)C3)nc1` (stereo partly drawn) [Example 21-2B] was 0.01 µM; that for `COC(=O)c1cnc(N2C3CC[C@H]2CC(OCc2c(-c4ccccc4C(F)(F)F)noc2C2CC2)C3)cn1` (stereo partly drawn) [Example 21-3A] was 0.18 µM; that for `O=C(O)c1cnc(N2C3CC[C@H]2CC(OCc2c(-c4ccccc4C(F)(F)F)noc2C2CC2)C3)cn1` (stereo partly drawn) [Example 21-3B] was 0.009 µM.
For `COC(=O)c1cnc(N2C3CC[C@H]2CC(OCc2c(-c4ccccc4C(F)(F)F)noc2C2CC2)C3)cc1C(F)(F)F` (stereo partly drawn) [Example 21-4A], the concentration for a half-maximal effect (EC50) amounted to 0.25 µM.
For `O=C(O)c1cnc(N2C3CC[C@H]2CC(OCc2c(-c4ccccc4C(F)(F)F)noc2C2CC2)C3)cc1C(F)(F)F` (stereo partly drawn) [Example 21-4B], the EC50 is 0.02 µM.
`COC(=O)c1ccnc(N2C3CC[C@H]2CC(OCc2c(-c4ccccc4C(F)(F)F)noc2C2CC2)C3)n1` (stereo partly drawn) [Example 21-5A]: the EC50 was 0.11 µM.
Still for that read-out and setting: under `O=C(O)c1ccnc(N2C3CC[C@H]2CC(OCc2c(-c4ccccc4C(F)(F)F)noc2C2CC2)C3)n1` (stereo partly drawn) [Example 21-5B] stands 0.01 µM.
Still for that read-out and setting: the value for `COC(=O)c1cccc(N2C3CC[C@H]2CC(OCc2c(-c4ccccc4C(F)(F)F)noc2C2CC2)C3)n1` (stereo partly drawn) [Example 21-6A] was 0.06 µM.
Same read-out and setting: the value for `O=C(O)c1cccc(N2C3CC[C@H]2CC(OCc2c(-c4ccccc4C(F)(F)F)noc2C2CC2)C3)n1` (stereo partly drawn) [Example 21-6B] was 0.016 µM.
As for `COC(=O)c1cnc(N2C3CC[C@H]2CC(OCc2c(-c4ccccc4OC(F)F)noc2C2CC2)C3)cc1C(F)(F)F` (stereo partly drawn) [Example 22-1A], the EC50 turned out to be 0.53 µM.
Same read-out and setting: under `O=C(O)c1cnc(N2C3CC[C@H]2CC(OCc2c(-c4ccccc4OC(F)F)noc2C2CC2)C3)cc1C(F)(F)F` (stereo partly drawn) [Example 22-1B] stands 0.02 µM; under `COC(=O)c1ccnc(N2C3CC[C@H]2CC(OCc2c(-c4ccccc4OC(F)F)noc2C2CC2)C3)n1` (stereo partly drawn) [Example 22-2A], 0.06 µM; under `O=C(O)c1ccnc(N2C3CC[C@H]2CC(OCc2c(-c4ccccc4OC(F)F)noc2C2CC2)C3)n1` (stereo partly drawn) [Example 22-2B], 0.009 µM.
The same measure, in the same setting: the value for `COC(=O)c1cccc(N2C3CC[C@H]2CC(OCc2c(-c4ccccc4OC(F)F)noc2C2CC2)C3)n1` (stereo partly drawn) [Example 22-3] was 0.01 µM; that for `COC(=O)c1cnc(N2C3CC[C@H]2CC(OCc2c(-c4ccccc4OC(F)F)noc2C2CC2)C3)cc1C` (stereo partly drawn) [Example 22-4A] was 0.02 µM.
On the same count and under the same terms, the value for `Cc1cc(N2C3CC[C@H]2CC(OCc2c(-c4ccccc4OC(F)F)noc2C2CC2)C3)ncc1C(=O)O` (stereo partly drawn) [Example 22-4B] was 0.009 µM.
Turning to `COC(=O)c1cc(C)nc(N2C3CC[C@H]2CC(OCc2c(-c4ccccc4OC(F)F)noc2C2CC2)C3)n1` (stereo partly drawn) [Example 22-5], the EC50 amounted to 0.027 µM.
On the same count and under the same terms, the value for `COC(=O)c1cnc(N2C3CC[C@H]2CC(OCc2c(-c4ccccc4OC(F)F)noc2C2CC2)C3)cc1Cl` (stereo partly drawn) [Example 22-6A] was 0.056 µM; that for `COC(=O)c1cnc(N2C3CC[C@H]2CC(OCc2c(-c4ccccc4OC(F)F)noc2C2CC2)C3)c(C)c1` (stereo partly drawn) [Example 22-7A] was 0.01 µM.
Same read-out and setting: under `Cc1cc(C(=O)O)cnc1N1C2CC[C@H]1CC(OCc1c(-c3ccccc3OC(F)F)noc1C1CC1)C2` (stereo partly drawn) [Example 22-7B] stands 0.005 µM; under `Cc1cc(C(=O)O)nc(N2C3CC[C@H]2CC(OCc2c(-c4ccccc4OC(F)F)noc2C2CC2)C3)n1` (stereo partly drawn) [Example 22-8], 0.005 µM; under `COC(=O)c1ccc(N2C3CC[C@H]2CC(OCc2c(-c4ccccc4OC(F)F)noc2C2CC2)C3)nn1` (stereo partly drawn) [Example 22-9A], 1.03 µM.
Still for that read-out and setting: under `O=C(O)c1ccc(N2C3CC[C@H]2CC(OCc2c(-c4ccccc4OC(F)F)noc2C2CC2)C3)nn1` (stereo partly drawn) [Example 22-9B] stands 0.017 µM.
For `COC(=O)c1cnc(N2C3CC[C@H]2CC(OCc2c(-c4ccccc4OC(F)F)noc2C2CC2)C3)nc1` (stereo partly drawn) [Example 22-10A], the EC50 is 0.36 µM.
The same measure, in the same setting: the value for `O=C(O)c1cnc(N2C3CC[C@H]2CC(OCc2c(-c4ccccc4OC(F)F)noc2C2CC2)C3)nc1` (stereo partly drawn) [Example 22-10B] was 0.008 µM.
The same measure, in the same setting: the value for `COC(=O)c1cnc(N2C3CC[C@H]2CC(OCc2c(-c4ccccc4OC(F)F)noc2C2CC2)C3)cn1` (stereo partly drawn) [Example 22-11A] was 0.11 µM.
On to `O=C(O)c1cnc(N2C3CC[C@H]2CC(OCc2c(-c4ccccc4OC(F)F)noc2C2CC2)C3)cn1` (stereo partly drawn) [Example 22-11B], for which the EC50 turned out to be 0.01 µM.
Still for that read-out and setting: the value for `COC(=O)c1ccc(N2[C@@H]3CC[C@H]2C[C@@H](OCc2c(-c4c(F)cccc4F)noc2C2CC2)C3)nc1` [Example 22-13A] was 0.08 µM.
Same read-out and setting: the value for `O=C(O)c1ccc(N2[C@@H]3CC[C@H]2C[C@@H](OCc2c(-c4c(F)cccc4F)noc2C2CC2)C3)nc1` [Example 22-13B] was 0.009 µM.
The same measure, in the same setting: under `COC(=O)c1cnc(N2C3CC[C@H]2CC(OCc2c(-c4c(F)cccc4F)noc2C2CC2)C3)nc1` (stereo partly drawn) [Example 22-14A] stands 0.07 µM.
For `O=C(O)c1cnc(N2C3CC[C@H]2CC(OCc2c(-c4c(F)cccc4F)noc2C2CC2)C3)nc1` (stereo partly drawn) [Example 22-14B], the EC50 worked out at 0.013 µM.
On the same count and under the same terms, the value for `COC(=O)c1cnc(N2C3CC[C@H]2CC(OCc2c(-c4c(F)cccc4F)noc2C2CC2)C3)cn1` (stereo partly drawn) [Example 22-15A] was 0.13 µM; that for `O=C(O)c1cnc(N2[C@@H]3CC[C@H]2C[C@@H](OCc2c(-c4c(F)cccc4F)noc2C2CC2)C3)cn1` [Example 22-15B] was 0.028 µM.
